In general, IC50 refers to the concentration that inhibits the measured activity by half. A word on the EC50: it is the concentration that produces a half-maximal response.

For experiment [1], the target named is T1, HCV NS5B RdRp genotype 1b (Hepatitis C virus genotype 1b, UniProt Q9WMX2).
T1 construct: The protein was expressed with an 18 amino acid C-terminal truncation to enhance the solubility; made in house; host or cells: E. coli BL21(DE3)
Kind of experiment: HCV NS5B RdRp enzyme assay. Format: biochemical. Particulars: HCV RdRp genotype 1b enzyme; read-out: RdRp Inhibition Range, IC50. As to the method: HCV NS5B RdRp cloning, expression, and purification. The cDNA encoding the NS5B protein of HCV, genotype 1b, was cloned into the pET21a expression vector. The protein was expressed with an 18 amino acid C-terminal truncation to enhance the solubility. The E. coli competent cell line BL21(DE3) was used for expression of the protein. Cultures were grown at 37° C. for ˜4 hours until the cultures reached an optical density of 2.0 at 600 nm. The cultures were cooled to 20° C. and induced with 1 mM IPTG. Fresh ampicillin was added to a final concentration of 50 μg/ml and the cells were grown overnight at 20° C.
Cell pellets (3 L) were lysed for purification to yield 15-24 mgs of purified NS5B. The lysis buffer consisted of 20 mM Tris-HCl, pH 7.4, 500 mM NaCl, 0.5% triton X-100, 1 mM DTT, 1 mM EDTA, 20% glycerol, 0.5 mg/ml lysozyme, 10 mM MgCl2, 15 ug/ml deoxyribonuclease I, and Complete TM protease inhibitor tablets (Roche). After addition of the lysis buffer, frozen cell pellets were resuspended using a tissue homogenizer. To reduce the viscosity of the sample, aliquots of the lysate were sonicated on ice using a microtip attached to a Branson sonicator. The sonicated lysate was centrifuged at 100,000×g for 1 hr at 4° C. and filtered through a 0.2 μm filter unit (Corning). […]
HCV NS5B RdRp enzyme assay. […] Plates were read on a Packard Top Count NXT. […]

In another experiment the test system is HCV replicon. Kind of experiment: HCV replicon FRET assay (HCV RdRp cell line). Particulars: Hepatitis C virus, read-out: RdRp Inhibition Range, EC50. Format: cell-based. The text has this: FRET Assay Preparation. To perform the HCV FRET screening assay, 96-well cell culture plates were used. The FRET peptide (Anaspec, Inc.) (Taliani et al., Anal. Biochem. 240:60-67 (1996), expressly incorporated by reference in its entirety) contains a fluorescence donor, EDANS, near one end of the peptide and an acceptor, DABCYL, near the other end. The fluorescence of the peptide is quenched by […] resonance energy transfer (RET) between the donor and the acceptor, but as the NS3 protease cleaves the peptide the products are released from RET quenching and the fluorescence of the donor becomes apparent. […]
FRET Assay and Cytotoxicity Assay. […] After reading in a Cytoflour 4000 instrument (PE Biosystems), plates were rinsed with PBS and then used for FRET assay by the addition of 30 ul of the FRET peptide assay reagent described above (FRET Assay Preparation) per well. The plate was then placed into the Cytoflour 4000 instrument which had been set to 340 excite/490 emission, automatic mode for 20 cycles and the plate read in a kinetic mode. Typically, the signal to noise using an endpoint analysis after the reads was at least three-fold.
Compound analysis was determined by quantification of the relative HCV replicon inhibition and the relative cytotoxicity values. […]

T1 sequence (Q9WMX2 2420-2992): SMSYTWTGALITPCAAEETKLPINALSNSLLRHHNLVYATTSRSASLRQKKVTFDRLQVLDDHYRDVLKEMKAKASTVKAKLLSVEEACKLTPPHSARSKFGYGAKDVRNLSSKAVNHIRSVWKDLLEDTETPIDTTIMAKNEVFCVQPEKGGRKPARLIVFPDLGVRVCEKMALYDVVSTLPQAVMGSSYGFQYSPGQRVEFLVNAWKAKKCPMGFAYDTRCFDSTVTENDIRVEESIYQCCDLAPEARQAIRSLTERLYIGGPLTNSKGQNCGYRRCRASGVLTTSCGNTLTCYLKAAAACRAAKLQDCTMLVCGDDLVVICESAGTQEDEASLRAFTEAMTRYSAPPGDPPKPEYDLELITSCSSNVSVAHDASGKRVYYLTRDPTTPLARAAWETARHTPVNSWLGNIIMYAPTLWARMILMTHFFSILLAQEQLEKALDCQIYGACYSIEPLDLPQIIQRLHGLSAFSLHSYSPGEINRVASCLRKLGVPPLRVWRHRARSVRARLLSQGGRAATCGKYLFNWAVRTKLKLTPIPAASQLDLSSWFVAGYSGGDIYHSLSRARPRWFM

For the compound `Cn1c(-c2ccoc2)c(C2CCCCC2)c2ccc(C(=O)Nc3nnn[nH]3)cc21` [Compound 1], the IC50 in experiment [1] was 100 to 1000 nM. The EC50 with HCV replicon is < 5000 nM.

Regarding `Cn1c(-c2ccoc2)c(C2CCCCC2)c2ccc(-c3nnn[nH]3)cc21` [Compound 2], the IC50 in experiment [1] is 100 to 1000 nM. Besides, in the experiment with HCV replicon, the EC50 is 5000 to 10000 nM.

(Values after patent US20050119318A1, “Inhibitors of HCV replication” (priority 2003, published 2005).)
